In this assay the test system is subjects with IGM. Briefly: Multi-center, double-blind, parallel group, randomized study of nateglinide vs placebo before each main meal for 8 weeks in subjects with IGM. The format is in vivo, human. Conditions: nateglinide 30 mg, 60 mg or 120 mg before each main meal, 8 weeks of treatment. As for the experimental part:
Favorable effects can be verified that confirm that hypoglycemic agents such as insulin enhancers can restore early phase insulin secretion and reduce post-prandial glucose levels in subjects with IGM. A multi-center, double-blind, parallel group, randomized study can be conducted in subjects with IGM in order to evaluate the incidence of confirmed hypoglycemia and the effects on prandial glucose associated with the administration of nateglinide 30 mg, 60 mg or 120 mg or placebo before each main meal during 8 weeks of treatment. Subjects are selected on the basis of a 2-hour plasma glucose value after a 75 g oral glucose tolerance test (OGTT) and patients essentially meeting the following additional inclusion criteria are included in the study: • two-hour glycemia post-OGTT between 7.8 to 11.1 mmol/L (one OGTT to be performed during the year before entering the study, the second to be performed within two weeks prior entering the study); • FPG <7 mmol/L; • patients are to have a body mass index (BMI) between 20-32 kg/m2; • patients are to maintain prior diet during the full course of study; • males, non-fertile females, females of child-bearing potential using a medically approved birth control method are included; • the use of other antidiabetics during the trial is not permitted. Corresponding dosages of e.g. nateglinide are administered with a large glass of water 2 (BID), 3 (TID) or 4 (QID) times daily depending on the number of main meals (breakfast, lunch, snack, dinner). The first dose is to be given with the first main meal (standardized meal i.e. 55% carbohydrates, 25% fat and 20% protein). Visits are scheduled to be performed at weeks 0, 2, 4 and 8 and the patients are to be fasted for at least 7 hours. All blood samples for laboratory evaluations are drawn between 07.00 and 10.00 a.m. HbA1c is to be measured at baseline. and after 8 weeks of treatment (fasting glucose and fructosamine). Samples of blood are to be drawn at 10, 20, […], 60, 120, and 180 minutes after drug administration (time 0) and the glucose and insulin levels to be measured. At weeks 0 and 8 visits, patients complete a standard meal challenge containing approximately 500 kcal and measurements of insulin and glucose will be performed. […] With longer treatment and follow-up, conditions and diseases associated with IGM could be prevented or reduced.

Each structure is given as a SMILES string.

Consider `CC(C)[C@H]1CC[C@H](C(=O)N[C@H](Cc2ccccc2)C(=O)O)CC1` [nateglinide, N-(trans-4-isopropylcyclohexylcarbonyl)-D-phenylalanine], for which the “2 hour prandial glucose levels” value is reported as “significantly reduced”, the HBA1c entry is “significantly reduced”, the “early phase insulin secretion” value is reported as “restored” and the fructosamine levels result is “significantly reduced”. For the same compound, the “progression to type 2 diabetes mellitus” value is recorded as “could prevent or delay”.

The record behind these values is patent US20070032538A1, “Use of compounds” (priority 1999, published 2007).
